We go through 23 compounds from patent US7989445B2, “Thienopyrimidone compound” (Takeda Pharmaceutical Company Limited, priority 2005, dated 2011).

Structures can show the parent of a compound that is named as a salt.

One may read the melting point as the temperature of the solid-liquid transition.

On to `CNCc1ccc(CCn2cnc3cc(-c4ccc(Cl)cc4)sc3c2=O)cc1` (as salt: hydrochloride) [Example 4, 6-(4-chlorophenyl)-3-(2-{4-[(methylamino)methyl]phenyl}ethyl)thieno[3,2-d]pyrimidin-4(3H)-one dihydrochloride], for which the melting point was greater than 300 °C. As for `CC(=O)N(C)Cc1ccc(C(=O)Cn2cnc3cc(-c4ccc(Cl)cc4)sc3c2=O)cc1` [Example 14, N-(4-{[6-(4-chlorophenyl)-4-oxothieno[3,2-d]pyrimidin-3(4H) -yl]acetyl}benzyl)-N-methylacetamide], the figure is 250 to 251 °C; as for `CC(c1ccc(CCn2cnc3cc(-c4ccc(Cl)cc4)sc3c2=O)cc1)N1CC[C@H](F)C1` (stereo partly drawn) [Example 19, 6-(4-chlorophenyl)-3-[2-[4-[1-[(3S)-3-fluoropyrrolidin-1-yl]ethyl]phenyl]ethyl]thieno[3,2-d]pyrimidin-4(3H)-one], 160 to 163 °C; as for `CC(C)(C)OC(=O)N1CCN(Cc2ccc(CCn3cnc4cc(-c5ccc(Cl)cc5)sc4c3=O)cc2)C(=O)C1` [Example 37, tert-butyl 4-(4-{2-[6-(4-chlorophenyl)-4-oxothieno[3,2-d]pyrimidin-3(4H)-yl]ethyl}benzyl)-3-oxopiperazine-1-carboxylate], 165 to 170 °C.

Compound `O=C1CCCCN1Cc1ccc(CCn2cnc3cc(-c4ccc(Cl)cc4)sc3c2=O)cc1` [Example 25, 6-(4-chlorophenyl)-3-(2-{4-[(2-oxopiperidin-1-yl)methyl]phenyl}ethyl)thieno[3,2-d]pyrimidin-4(3H)-one] returned a melting point of 199 to 201 °C. For `O=C1CN(Cc2ccc(CCn3cnc4cc(-c5ccc(Cl)cc5)sc4c3=O)cc2)CCN1` [Example 35, 6-(4-chlorophenyl)-3-(2-{4-[(3-oxopiperazin-1-yl)methyl]phenyl}ethyl)thieno[3,2-d]pyrimidin-4(3H)-one] the value was 232 to 234 °C.

On to `CNCC(=O)N(C)Cc1ccc(CCn2cnc3cc(-c4ccc(Cl)cc4)sc3c2=O)cc1` [Example 28, N-(4-{2-[6-(4-chlorophenyl)-4-oxothieno[3,2-d]pyrimidin-3(4H) -yl]ethyl}benzyl)-N,N^2-dimethylglycinamide], for which the melting point fell in the range of 166 to 169 °C. For `CC(=O)N1CCN(Cc2ccc(CCn3cnc4cc(-c5ccc(Cl)cc5)sc4c3=O)cc2)C(=O)C1` [Example 39, 3-(2-{4-[(4-acetyl-2-oxopiperazin-1-yl)methyl]phenyl}ethyl)-6-(4-chlorophenyl)thieno[3,2-d]pyrimidin-4(3H)-one] the value was 204 to 207 °C; for `CN(C(=O)C(F)(F)F)C1Cc2ccc(C(=O)Cn3cnc4cc(-c5ccc(Cl)cc5)sc4c3=O)cc2C1` (centres unmarked) [Example 15, N-(5-{[6-(4-chlorophenyl)-4-oxothieno[3,2-d]pyrimidin-3(4H) -yl]acetyl}-2,3-dihydro-1H-inden-2-yl)-2,2,2-trifluoro-N -methylacetamide], 245 to 248 °C. For `CN(C)C(=O)N(C)Cc1ccc(CCn2cnc3cc(-c4ccc(Cl)cc4)sc3c2=O)cc1` [Example 8, N-(4-{2-[6-(4-chlorophenyl)-4-oxothieno[3,2-d]pyrimidin-3(4H) -yl]ethyl}benzyl)-N,N′,N′-trimethylurea] the value was 160 to 165 °C. As for `CC(=O)NC1CCN(Cc2ccc(CCn3cnc4cc(-c5ccc(Cl)cc5)sc4c3=O)cc2)C1` (centres unmarked) [Example 36, N-[1-(4-{2-[6-(4-chlorophenyl)-4-oxothieno[3,2-d]pyrimidin-3(4H)-yl]ethyl}benzyl)pyrrolidin-3-yl]acetamide], the figure is 196 to 198 °C. For the compound `CN(Cc1ccc(CCn2cnc3cc(-c4ccc(Cl)cc4)sc3c2=O)cc1)C(=O)CC(C)(C)C` [Example 5, N-(4-{2-[6-(4-chlorophenyl)-4-oxothieno[3,2-d]pyrimidin-3(4H)-yl]ethyl}benzyl)-N,3,3-trimethylbutanamide], the melting point came out at 181 °C. As for `CNC1Cc2ccc(C(=O)Cn3cnc4cc(-c5ccc(Cl)cc5)sc4c3=O)cc2C1` (centres unmarked) [Example 16, 6-(4-chlorophenyl)-3-{2-[2-(methylamino)-2,3-dihydro-1H-inden-5-yl]-2-oxoethyl}thieno[3,2-d]pyrimidin-4(3H)-one], the figure is 226 to 229 °C; as for `CNC(=O)CN(C)Cc1ccc(CCn2cnc3cc(-c4ccc(Cl)cc4)sc3c2=O)cc1` [Example 31, N^2-(4-{2-[6-(4-chlorophenyl)-4-oxothieno[3,2-d]pyrimidin-3(4H) -yl]ethyl}benzyl)-N,N^2-dimethylglycinamide], 146 to 149 °C. In the case of `CN(Cc1ccc(CCn2cnc3cc(-c4ccc(Cl)cc4)sc3c2=O)cc1)S(C)(=O)=O` [Example 24, N-(4-{2-[6-(4-chlorophenyl)-4-oxothieno[3,2-d]pyrimidin-3(4H) -yl]ethyl}benzyl)-N-methylmethanesulfonamide], the melting point was in the range of 230 to 232 °C. As for `CN(Cc1ccc(C(=O)Cn2cnc3cc(-c4ccc(Cl)cc4)sc3c2=O)cc1)C(=O)C(F)(F)F` [Example 12, N-(4-{[6-(4-chlorophenyl)-4-oxothieno[3,2-d]pyrimidin-3(4H) -yl]acetyl}benzyl)-2,2,2-trifluoro-N-methylacetamide], the figure is 235 to 238 °C. With `CN(CC(=O)OC(C)(C)C)Cc1ccc(CCn2cnc3cc(-c4ccc(Cl)cc4)sc3c2=O)cc1` [Example 29, N-(4-{2-[6-(4-chlorophenyl)-4-oxothieno[3,2-d]pyrimidin-3(4H) -yl]ethyl}benzyl)-N-methylglycine tert-butyl ester], the melting point amounted to 130 °C. With `CN(Cc1ccc(CCn2cnc3cc(-c4ccc(Cl)cc4)sc3c2=O)cc1)C(=O)C1CC1` [Example 7, N-(4-{2-[6-(4-chlorophenyl)-4-oxothieno[3,2-d]pyrimidin-3(4H) -yl]ethyl}benzyl)-N-methylcyclopropanecarboxamide], the melting point is 178 °C.

`CN(CC(=O)O)Cc1ccc(CCn2cnc3cc(-c4ccc(Cl)cc4)sc3c2=O)cc1` (as salt: hydrochloride) [Example 30, N-(4-{2-[6-(4-chlorophenyl)-4-oxothieno[3,2-d]pyrimidin-3(4H) -yl]ethyl}benzyl)-N-methylglycine dihydrochloride]: the melting point is 252 to 253 °C.

Turning to `CC(=O)N(C)N(C(=O)OC(C)(C)C)c1ccc(CCn2cnc3cc(-c4ccc(Cl)cc4)sc3c2=O)cc1` [Example 20], the melting point was 193 to 194 °C. For `CN(Cc1ccc(CCn2cnc3cc(-c4ccc(Cl)cc4)sc3c2=O)cc1)C(=O)OC(C)(C)C` [Example 3, tert-butyl N-(4-{2-[6-(4-chlorophenyl)-4-oxothieno[3,2-d]pyrimidin-3(4H)-yl]ethyl}benzyl)-N-methylcarbamate] the value was 206 to 209 °C. Turning to `O=C(Cn1cnc2cc(-c3ccc(Cl)cc3)sc2c1=O)c1ccc2c(c1)CCN(C(=O)C(F)(F)F)CC2` [Example 10, 6-(4-chlorophenyl)-3-{2-oxo-2-[3-(trifluoroacetyl) -2,3,4,5-tetrahydro-1H-3-benzazepin-7-yl]ethyl}thieno[3,2-d]pyrimidin-4(3H)-one], the melting point is 285 to 287 °C. For `O=C1CCCCN1Cc1ccc(CCn2cnc3cc(-c4ccc(F)cc4)sc3c2=O)cc1` [Example 26, 6-(4-fluorophenyl)-3-(2-{4-[(2-oxopiperidin-1-yl)methyl]phenyl}ethyl)thieno[3,2-d]pyrimidin-4(3H)-one], the melting point was 216 to 217 °C.
